From PubChem BioAssay AID328 (DTP/NCI, 2004)
“And” between values parts separate entries of the source, which are not always exact repeats. Equal entries are not always repeated. Toxic doses and inconclusive results are not listed.

Tested on: BDF1 mice, P388 leukemia ip, median survival T/C
Assay: NCI In Vivo Anticancer Drug Screen. Data for tumor model P388 Leukemia (intraperitoneal) in B6D2F1 (BDF1) mice
Conditions: endpoint: median survival time, higher = longer survival
In short: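 Each value expresses how treatment altered survival: treated-mouse outcome over vehicle-mouse outcome, both groups bearing the transplanted tumour.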

[1] = dose: 25.0 mg/kg/injection, schedule: Q01DX009 (ip), vehicle: saline with Tween-80
[2] = dose: 50.0 mg/kg/injection, schedule: Q01DX009 (ip), vehicle: saline with Tween-80
[3] = dose: 100.0 mg/kg/injection, schedule: Q01DX009 (ip), vehicle: saline with Tween-80
[4] = dose: 200.0 mg/kg/injection, schedule: Q01DX009 (ip), vehicle: saline with Tween-80
[5] = dose: 400.0 mg/kg/injection, schedule: Q01DX009 (ip), vehicle: saline with Tween-80
[6] = dose: 100.0 mg/kg/injection, schedule: Q04DX003 (ip), vehicle: saline with Tween-80
[7] = dose: 200.0 mg/kg/injection, schedule: Q04DX003 (ip), vehicle: saline with Tween-80
[8] = dose: 400.0 mg/kg/injection, schedule: Q04DX003 (ip), vehicle: saline with Tween-80
[9] = dose: 12.5 mg/kg/injection, schedule: Q01DX009 (ip), vehicle: saline with Tween-80
[10] = dose: 25.0 mg/kg/injection, schedule: Q04DX003 (ip), vehicle: saline with Tween-80
[11] = dose: 50.0 mg/kg/injection, schedule: Q04DX003 (ip), vehicle: saline with Tween-80
[12] = dose: 25.0 mg/kg/injection, schedule: Q04DX003 (ip), vehicle: saline
[13] = dose: 50.0 mg/kg/injection, schedule: Q04DX003 (ip), vehicle: saline
[14] = dose: 100.0 mg/kg/injection, schedule: Q04DX003 (ip), vehicle: saline

## COc1cccc2c1C(=O)c1c(O)c3c(c(O)c1C2=O)C[C@@](O)(C(O)O)C[C@@H]3OC1CC(N)C(O)C(C)O1 (some centres not stated)
dose: 4.0 mg/kg/injection, schedule: Q01DX009 (ip), vehicle: water
  T/C: 169 % of control
dose: 8.0 mg/kg/injection, schedule: Q01DX009 (ip), vehicle: water
  T/C: 87 % of control
dose: 16.0 mg/kg/injection, schedule: Q01DX009 (ip), vehicle: water
  T/C: 87 % of control

## Nc1nc2n[nH]nc2c(=O)[nH]1
dose: 25.0 mg/kg/injection, schedule: Q01DX010 (ip), vehicle: alkali diluted with saline
  T/C: 118 % of control
dose: 100.0 mg/kg/injection, schedule: Q01DX010 (ip), vehicle: alkali diluted with saline
  T/C: 165 % of control
dose: 200.0 mg/kg/injection, schedule: Q01DX010 (ip), vehicle: alkali diluted with saline
  T/C: 160 % of control and 163 % of control

## O=CC(OC(=O)c1ccccc1)C(OC(=O)c1ccccc1)C(COC(c1ccccc1)(c1ccccc1)c1ccccc1)OC(=O)c1ccccc1 (configuration not stated)
[1]
  T/C: 110 % of control
[2]
  T/C: 110 % of control
[3]
  T/C: 120 % of control
[4]
  T/C: 100 % of control and 108 % of control

## COc1ccc2c(c1)CCC1(C)C2=CC(=O)/C1=C\[O-].COc1ccc2c(c1)CCC1(C)C2=CC(=O)/C1=C\[O-].[Cu+2] (configuration not stated)
[1]
  T/C: 95 % of control
[2]
  T/C: 95 % of control
[3]
  T/C: 95 % of control

## CN1NCc2cncnc21
[2]
  T/C: 90 % of control
[3]
  T/C: 99 % of control
[4]
  T/C: 99 % of control
[5]
  T/C: 90 % of control

## CCCCCCCCCCCCCCCC(=O)N1CCC(N2CCCCC2)CC1
dose: 200.0 mg/kg/injection, schedule: Q01DX001 (ip), vehicle: Klucel (hydroxypropylcellulose) (HPC)
  T/C: 109 % of control
dose: 400.0 mg/kg/injection, schedule: Q01DX001 (ip), vehicle: Klucel (hydroxypropylcellulose) (HPC)
  T/C: 90 % of control

## NS(=O)(=O)c1ccc(NC2OCC(O)C(O)C2O)cc1 (configuration not stated)
[3]
  T/C: 95 % of control
[4]
  T/C: 90 % of control
[5]
  T/C: 100 % of control

## CCOC1c2cnc(C)n2C=CN1C(C)=O (configuration not stated)
dose: 50.0 mg/kg/injection, schedule: Q04DX003 (ip), vehicle: water
  T/C: 109 % of control
dose: 100.0 mg/kg/injection, schedule: Q04DX003 (ip), vehicle: water
  T/C: 100 % of control and 104 % of control
dose: 200.0 mg/kg/injection, schedule: Q04DX003 (ip), vehicle: water
  T/C: 101 % of control and 111 % of control
dose: 300.0 mg/kg/injection, schedule: Q04DX003 (ip), vehicle: water
  T/C: 110 % of control
dose: 400.0 mg/kg/injection, schedule: Q04DX003 (ip), vehicle: water
  T/C: 118 % of control

## CC(=O)C1CC2c3ccccc3C1c1ccccc12 (configuration not stated)
[3]
  T/C: 95 % of control
[4]
  T/C: 87 % of control

## CSc1ccc(OC(=O)Nc2ccc(C)c([N+](=O)[O-])c2)cc1C
[6]
  T/C: 90 % of control
[7]
  T/C: 95 % of control
[8]
  T/C: 104 % of control

## COC(=O)/C=C1\C(C(=O)OC)=Cc2ccccc2N1C
[9]
  T/C: 100 % of control
[1]
  T/C: 100 % of control
[10]
  T/C: 104 % of control
[2]
  T/C: 105 % of control
[11]
  T/C: 100 % of control
[3]
  T/C: 91 % of control
[6]
  T/C: 87 % of control and 90 % of control
[7]
  T/C: 87 % of control

## Cc1cc(O)c(O)c(C(C)(C)CC(C)(C)C)c1
dose: 100.0 mg/kg/injection, schedule: Q04DX003 (ip), vehicle: saline + alcohol
  T/C: 95 % of control
dose: 200.0 mg/kg/injection, schedule: Q04DX003 (ip), vehicle: saline + alcohol
  T/C: 104 % of control
dose: 400.0 mg/kg/injection, schedule: Q04DX003 (ip), vehicle: saline + alcohol
  T/C: 100 % of control

## CSCC(N)CO (configuration not stated)
[12]
  T/C: 104 % of control
[13]
  T/C: 111 % of control and 116 % of control
[14]
  T/C: 116 % of control
dose: 200.0 mg/kg/injection, schedule: Q04DX003 (ip), vehicle: saline
  T/C: 109 % of control and 111 % of control
dose: 400.0 mg/kg/injection, schedule: Q04DX003 (ip), vehicle: saline
  T/C: 90 % of control and 120 % of control

## CC(=O)N1CCc2nc3ccccc3cc21
dose: 24.75 mg/kg/injection, schedule: Q01DX009 (ip), vehicle: Klucel (hydroxypropylcellulose) (HPC)
  T/C: 123 % of control
dose: 25.0 mg/kg/injection, schedule: Q01DX009 (ip), vehicle: Klucel (hydroxypropylcellulose) (HPC)
  T/C: 105 % of control
dose: 37.5 mg/kg/injection, schedule: Q01DX009 (ip), vehicle: Klucel (hydroxypropylcellulose) (HPC)
  T/C: 104 % of control and 105 % of control
dose: 56.25 mg/kg/injection, schedule: Q01DX009 (ip), vehicle: Klucel (hydroxypropylcellulose) (HPC)
  T/C: 104 % of control and 110 % of control

## O=C(Cl)C1CCCCC1
[2]
  T/C: 100 % of control
[3]
  T/C: 104 % of control

## NCCCC(N)(CO)C(=O)O (configuration not stated)
dose: 50.0 mg/kg/injection, schedule: Q01DX009 (ip), vehicle: saline
  T/C: 91 % of control
dose: 100.0 mg/kg/injection, schedule: Q01DX009 (ip), vehicle: saline
  T/C: 97 % of control
dose: 200.0 mg/kg/injection, schedule: Q01DX009 (ip), vehicle: saline
  T/C: 100 % of control

## C=Cn1ccnc1C.C=Cn1ccnc1C.CC(=O)CC(C)=O.CC(=O)CC(C)=O.[Co]
dose: 12.5 mg/kg/injection, schedule: Q04DX003 (ip), vehicle: saline
  T/C: 106 % of control
[12]
  T/C: 106 % of control
[13]
  T/C: 117 % of control

## Cc1ccc(S)cc1
[9]
  T/C: 104 % of control
[1]
  T/C: 95 % of control
[10]
  T/C: 100 % of control
[2]
  T/C: 108 % of control
[11]
  T/C: 91 % of control

## N#CC(C#N)=Cc1ccc2c(c1)CCC2
dose: 5.0 mg/kg/injection, schedule: Q04DX003 (ip), vehicle: saline with Tween-80
  T/C: 104 % of control
dose: 9.5 mg/kg/injection, schedule: Q01DX009 (ip), vehicle: saline with Tween-80
  T/C: 104 % of control
dose: 10.0 mg/kg/injection, schedule: Q04DX003 (ip), vehicle: saline with Tween-80
  T/C: 95 % of control
dose: 19.0 mg/kg/injection, schedule: Q01DX009 (ip), vehicle: saline with Tween-80
  T/C: 109 % of control
dose: 20.0 mg/kg/injection, schedule: Q04DX003 (ip), vehicle: saline with Tween-80
  T/C: 95 % of control
dose: 38.0 mg/kg/injection, schedule: Q01DX009 (ip), vehicle: saline with Tween-80
  T/C: 86 % of control and 100 % of control

## Nc1ccc(O)cc1
dose: 264.0 mg/kg/injection, schedule: Q01DX009 (ip), vehicle: saline sonified
  T/C: 109 % of control
dose: 400.0 mg/kg/injection, schedule: Q01DX009 (ip), vehicle: saline sonified
  T/C: 90 % of control

## Cc1ccc(C)c(CCCC(=O)O)c1
[3]
  T/C: 95 % of control
[6]
  T/C: 100 % of control
[4]
  T/C: 109 % of control
[7]
  T/C: 104 % of control
[8]
  T/C: 108 % of control

## O=C1c2ccccc2-c2ncccc21
dose: 100.0 mg/kg/injection, schedule: Q04DX003 (ip), vehicle: Klucel (hydroxypropylcellulose) (HPC)
  T/C: 100 % of control
dose: 200.0 mg/kg/injection, schedule: Q04DX003 (ip), vehicle: Klucel (hydroxypropylcellulose) (HPC)
  T/C: 95 % of control

## CC[C@@H](C(=O)[C@@H](C)[C@@H](O)[C@H](C)CCc1ccc(C)c(O)c1C(=O)O)[C@H]1O[C@](CC)([C@H]2CC[C@](O)(CC)[C@H](C)O2)C[C@@H]1C
dose: 3.12 mg/kg/injection, schedule: Q01DX009 (ip), vehicle: Klucel (hydroxypropylcellulose) (HPC)
  T/C: 108 % of control
dose: 6.25 mg/kg/injection, schedule: Q01DX009 (ip), vehicle: Klucel (hydroxypropylcellulose) (HPC)
  T/C: 110 % of control
dose: 12.5 mg/kg/injection, schedule: Q01DX009 (ip), vehicle: Klucel (hydroxypropylcellulose) (HPC)
  T/C: 118 % of control and 119 % of control

## CN(CCCOS(C)(=O)=O)CCCOS(C)(=O)=O
dose: 2.2 mg/kg/injection, schedule: Q04DX003 (ip), vehicle: saline
  T/C: 104 % of control
dose: 3.4 mg/kg/injection, schedule: Q04DX003 (ip), vehicle: saline
  T/C: 113 % of control
dose: 5.0 mg/kg/injection, schedule: Q01DX010 (ip), vehicle: saline
  T/C: 150 % of control
dose: 10.0 mg/kg/injection, schedule: Q01DX010 (ip), vehicle: saline
  T/C: 196 % of control
dose: 19.0 mg/kg/injection, schedule: Q04DX003 (ip), vehicle: saline
  T/C: 172 % of control
[1]
  T/C: 263 % of control
dose: 29.0 mg/kg/injection, schedule: Q04DX003 (ip), vehicle: saline with Tween-80
  T/C: 209 % of control
dose: 40.0 mg/kg/injection, schedule: Q01DX010 (ip), vehicle: saline
  T/C: 230 % of control
dose: 66.0 mg/kg/injection, schedule: Q04DX003 (ip), vehicle: saline with Tween-80
  T/C: 300 % of control
dose: 80.0 mg/kg/injection, schedule: Q01DX010 (ip), vehicle: saline
  T/C: 107 % of control
[6]
  T/C: 300 % of control
[14]
  T/C: 118 % of control
dose: 150.0 mg/kg/injection, schedule: Q04DX003 (ip), vehicle: saline with Tween-80
  T/C: 100 % of control
dose: 150.0 mg/kg/injection, schedule: Q04DX003 (ip), vehicle: saline
  T/C: 254 % of control
